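Dose response: 5 concentrations. Exposure: 48 h. Format: 96-well plates. Endpoint: linear interpolation; highest concentration if not reached. GI50 marks 50% less growth.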 The source made the active and inactive calls. Rule as the data show it: active = GI50 up to about 1.1 µM and inactive = higher.
Key:
Assay in all cases: inhibition of tumour cell growth, NCI panel, 48 h
DU-145 = system: DU-145
NCI-H522 = system: NCI-H522
CAKI-1 = system: CAKI-1
SF-539 = system: SF-539
HT-29 = system: HT-29
OVCAR-4 = system: OVCAR-4
K562 = system: K562
NCI/ADR-RES = system: NCI/ADR-RES
LOX IMVI = system: LOX IMVI
SNB-19 = system: SNB-19
SN12C = system: SN12C
CCRF-CEM = system: CCRF-CEM
T47D = system: T47D
PC-3 = system: PC-3
RPMI-8226 = system: RPMI-8226
UACC-257 = system: UACC-257
A498 = system: A498
NCI-H460 = system: NCI-H460
SNB-75 = system: SNB-75
NCI-H23 = system: NCI-H23

Measured: GI50

c1ccc(CN[C@]23C4C5CC6C7C5C2C7[C@@](NCc2ccccc2)(C64)N3Cc2ccccc2)cc1 (stereo partly drawn)
inactive: DU-145 > 100 µM | NCI-H522 91.8 µM | CAKI-1 > 100 µM | SF-539 > 100 µM | HT-29 > 100 µM | OVCAR-4 > 100 µM | K562 > 100 µM | NCI/ADR-RES > 100 µM | LOX IMVI > 100 µM | SNB-19 > 100 µM | SN12C > 100 µM | CCRF-CEM > 100 µM | T47D > 100 µM | PC-3 > 100 µM | RPMI-8226 > 100 µM | UACC-257 > 100 µM | A498 > 100 µM | NCI-H460 > 100 µM | SNB-75 > 100 µM | NCI-H23 > 100 µM

COc1c2c(cc3c1OCO3)C13C=CC(OC)CC1N(CC3)C2.[O-][Cl+3]([O-])([O-])O (stereo not drawn)
inactive: DU-145 > 100 µM | NCI-H522 > 100 µM | CAKI-1 > 100 µM | SF-539 > 100 µM | HT-29 71 µM | OVCAR-4 49.3 µM | NCI/ADR-RES > 100 µM | LOX IMVI > 100 µM | SNB-19 > 100 µM | SN12C > 100 µM | CCRF-CEM > 100 µM | T47D > 100 µM | PC-3 > 100 µM | RPMI-8226 > 100 µM | UACC-257 > 100 µM | A498 > 100 µM | SNB-75 > 100 µM | NCI-H23 > 100 µM

COC(=O)C1(NC(=O)C(CC(=O)OCc2ccccc2)NC(=O)OCc2ccccc2)CCCCCCC1 (stereo not drawn)
inactive: DU-145 > 100 µM | NCI-H522 13 µM | CAKI-1 31.1 µM | SF-539 49.7 µM | HT-29 24.6 µM | OVCAR-4 29.8 µM | K562 10.2 µM | NCI/ADR-RES 19.3 µM | LOX IMVI 28.2 µM | SNB-19 49.5 µM | SN12C 36.6 µM | T47D 17.6 µM | PC-3 7.96 µM | RPMI-8226 5.56 µM | A498 13.6 µM | NCI-H460 30.7 µM | SNB-75 28.6 µM | NCI-H23 46.6 µM

CN1CCC2(CC1)C(=O)N(N1CCCCCC1)C(=O)N2c1ccccc1
inactive: DU-145 > 100 µM | NCI-H522 57.7 µM | CAKI-1 > 100 µM | SF-539 > 100 µM | HT-29 60.5 µM | OVCAR-4 > 100 µM | K562 > 100 µM | NCI/ADR-RES > 100 µM | LOX IMVI > 100 µM | SNB-19 > 100 µM | SN12C > 100 µM | CCRF-CEM > 100 µM | T47D > 100 µM | PC-3 77.8 µM | RPMI-8226 > 100 µM | UACC-257 > 100 µM | A498 34.7 µM | NCI-H460 > 100 µM | SNB-75 31.9 µM | NCI-H23 > 100 µM

CC(C)(C)C(=O)N1CCN(C=O)C1=S
inactive: DU-145 33.5 µM | NCI-H522 26.8 µM | CAKI-1 34.6 µM | SF-539 > 100 µM | HT-29 > 100 µM | OVCAR-4 > 100 µM | K562 35.2 µM | NCI/ADR-RES > 100 µM | LOX IMVI 34.2 µM | SNB-19 > 100 µM | SN12C 36.8 µM | CCRF-CEM 29.8 µM | T47D 34 µM | PC-3 > 100 µM | RPMI-8226 24.8 µM | UACC-257 62.7 µM | A498 18.7 µM | NCI-H460 > 100 µM | SNB-75 30.1 µM | NCI-H23 77.3 µM

O=S(=O)(O)SCCNCCCCCC1CCCCC1
inactive: DU-145 6.3 µM | NCI-H522 18.4 µM | CAKI-1 19 µM | SF-539 7.11 µM | HT-29 6.9 µM | OVCAR-4 17.2 µM | NCI/ADR-RES 16.7 µM | LOX IMVI 2.14 µM | SNB-19 5.46 µM | SN12C 6.12 µM | CCRF-CEM 6.24 µM | T47D 13.6 µM | PC-3 8.02 µM | RPMI-8226 17.1 µM | UACC-257 6.61 µM | A498 25.1 µM | NCI-H460 4.72 µM | SNB-75 3.56 µM | NCI-H23 10.4 µM
active: K562 0.863 µM

Fc1ccc(C(OCCN2CC3CC2CN3)c2ccc(F)cc2)cc1 (stereo not drawn)
inactive: DU-145 > 100 µM | NCI-H522 47.3 µM | CAKI-1 > 100 µM | SF-539 29.6 µM | OVCAR-4 > 100 µM | K562 36 µM | NCI/ADR-RES 97.9 µM | LOX IMVI 50.9 µM | CCRF-CEM 35.3 µM | T47D 35.2 µM | PC-3 59.2 µM | RPMI-8226 26.1 µM | UACC-257 18.3 µM | A498 44.9 µM | NCI-H460 38.9 µM | SNB-75 66.4 µM | NCI-H23 > 100 µM

Cc1c2ccccc2nc2[nH]c3ccncc3c12
inactive: DU-145 34.5 µM | NCI-H522 36.1 µM | CAKI-1 25.2 µM | SF-539 36.8 µM | HT-29 28.2 µM | OVCAR-4 45.6 µM | K562 51.5 µM | NCI/ADR-RES 23.9 µM | LOX IMVI 20.6 µM | SNB-19 36.1 µM | SN12C 13.1 µM | T47D 33.7 µM | PC-3 38.3 µM | RPMI-8226 21 µM | UACC-257 52.1 µM | A498 42.9 µM | NCI-H460 15.4 µM | SNB-75 86.3 µM | NCI-H23 33 µM
active: CCRF-CEM 0.957 µM

CC(C)c1cc2c(c(O)c1O)[C@@]1(C)CCCC(C)(C)C1=C(O)C2
active: CAKI-1 1.05 µM | SF-539 0.726 µM | NCI/ADR-RES 0.809 µM | CCRF-CEM 0.822 µM | RPMI-8226 0.946 µM | A498 1.12 µM | SNB-75 0.984 µM
inactive: DU-145 3.03 µM | NCI-H522 1.15 µM | HT-29 6.75 µM | OVCAR-4 1.29 µM | K562 1.6 µM | LOX IMVI 1.21 µM | SNB-19 2.42 µM | SN12C 20.9 µM | T47D 2.04 µM | PC-3 1.19 µM | UACC-257 1.13 µM | NCI-H460 1.51 µM | NCI-H23 1.54 µM

Oc1cccc2c(Cl)ccnc12
inactive: DU-145 5.51 µM | CAKI-1 2.39 µM | SF-539 2.11 µM | HT-29 9.51 µM | OVCAR-4 1.7 µM | NCI/ADR-RES 2.3 µM | SNB-19 23 µM | SN12C 1.2 µM | PC-3 1.67 µM | UACC-257 3.1 µM | A498 15.8 µM | NCI-H460 3.08 µM | SNB-75 28.5 µM | NCI-H23 3.15 µM
active: NCI-H522 0.741 µM | K562 0.42 µM | LOX IMVI 0.384 µM | CCRF-CEM 0.266 µM | T47D 0.397 µM | RPMI-8226 0.499 µM
